{"source": "ChEMBL document CHEMBL6153035", "about": "“Natural and Semisynthetic Immunomodulatory Luakuliide Labdane Diterpenoids” (J Nat Prod, 2025)", "key": {"BMDM [1]": {"system": "BMDM", "experiment": "Antiinflammatory activity against LPS-stimulated mouse BMDM cells assessed as reduction in IL-6 production at 10 to 100 nM preincubated with compound for 8 hrs followed by LPS-induction and measured after 48 hrs by ELISA assay", "format": "functional, cell-based", "details": "dose 10-100 nM, time 56.0 hrs"}, "RAW264.7 [2]": {"system": "RAW264.7", "experiment": "Cytotoxicity against LPS-stimulated mouse RAW264.7 cells assessed as reduction in cellular metabolism at 3.2 uM incubated for 8 hrs by MTT assay", "format": "toxicity, cell-based", "details": "raw264.7, 8 h"}, "[3]": {"experiment": "Cytotoxicity against LPS-stimulated mouse BMDM cells assessed as changes in cellular metabolism at 1 to 100 nM for 8 hrs by MTT assay", "format": "toxicity, cell-based", "details": "0.1 µM, dose 1-100 nM"}, "BMDM [4]": {"system": "BMDM", "experiment": "Antiinflammatory activity against IFN-gamma and LPS-stimulated mouse BMDM cells assessed as reduction in IL-12 production at 1 to 100 nM primed with 20 U/mL of IFN-gamma followed by 200 ng/mL of LPS stimulation in presence of compound for 48 hrs by ELISA assay", "format": "functional, cell-based", "details": "dose 1-100 nM"}, "RAW264.7 [5]": {"system": "RAW264.7", "experiment": "Antiinflammatory activity against LPS-stimulated mouse RAW264.7 cells assessed as reduction in TNF production at 1 to 1000 nM preincubated with compound for 8 hrs followed by LPS-induction and measured after 48 hrs by ELISA based assay", "format": "functional, cell-based", "details": "dose 1-1000 nM, time 56.0 hrs"}, "[6]": {"experiment": "Cytotoxicity against LPS-stimulated mouse BMDM cells assessed as reduction in cellular metabolism at 1 to 100 nM incubated for 8 hrs in presence of 500 ng/mL of LPS-stimulation by MTT assay", "format": "toxicity, cell-based", "details": "0.1 µM, dose 1-100 nM"}, "BMDM [7]": {"system": "BMDM", "experiment": "Antiinflammatory activity against LPS-stimulated mouse BMDM cells assessed as induction of TNF production at 1 to 100 nM preincubated with compound for 8 hrs followed by LPS-induction and measured after 48 hrs by ELISA assay", "format": "functional, cell-based", "details": "dose 1-100 nM, time 56.0 hrs"}, "RAW264.7 [8]": {"system": "RAW264.7", "experiment": "Cytotoxicity against LPS-stimulated mouse RAW264.7 cells assessed as reduction in cellular metabolism at 10 uM incubated for 8 hrs by MTT assay", "format": "toxicity, cell-based", "details": "raw264.7, 8 h"}, "BMDM [9]": {"system": "BMDM", "experiment": "Antiinflammatory activity against IFN-gamma and LPS-stimulated mouse BMDM cells assessed as reduction in IL-6 production at 1 to 100 nM primed with 20 U/mL of IFN-gamma followed by 200 ng/mL of LPS stimulation in presence of compound for 48 hrs by ELISA assay", "format": "functional, cell-based", "details": "dose 1-100 nM"}, "RAW264.7 [10]": {"system": "RAW264.7", "experiment": "Cytotoxicity against LPS-stimulated mouse RAW264.7 cells assessed as changes in cellular metabolism at 1 to 10000 nM incubated for 8 hrs by MTT assay", "format": "toxicity, cell-based", "details": "raw264.7, 8 h, 10 µM, dose 1-10000 nM"}, "BMDM [11]": {"system": "BMDM", "experiment": "Antiinflammatory activity against IFN-gamma and LPS-stimulated mouse BMDM cells assessed as change in NO production at 1 to 100 nM primed with 20 U/mL of IFN-gamma followed by 200 ng/mL of LPS stimulation in presence of compound for 48 hrs by […] assay", "format": "functional, cell-based", "details": "dose 1-100 nM"}, "BMDM [12]": {"system": "BMDM", "experiment": "Antiinflammatory activity against IFN-gamma and LPS-stimulated mouse BMDM cells assessed as change in IL-10 secretion at 1 to 100 nM primed with 20 U/mL of IFN-gamma followed by 200 ng/mL of LPS stimulation in presence of compound for 48 hour by ELISA assay", "format": "functional, cell-based", "details": "dose 1-100 nM"}, "[13]": {"experiment": "Cytotoxicity against IFN-gamma/LPS-stimulated mouse BMDM cells assessed as changes in cellular metabolism at 1 to 100 nM primed with 20 U/mL of IFN-gamma followed by 200 ng/mL of LPS stimulation in presence of compound at 1 to 100 nM for 48 hrs by MTT assay", "format": "toxicity, cell-based", "details": "0.1 µM, dose 1-100 nM"}, "BMDM [14]": {"system": "BMDM", "experiment": "Antiinflammatory activity against LPS-stimulated mouse BMDM cells assessed as reduction IL-6 production at 1 to 100 nM preincubated with compound for 8 hrs followed by LPS-induction and measured after 48 hrs by ELISA assay", "format": "functional, cell-based", "details": "dose 1-100 nM, time 56.0 hrs"}, "BMDM [15]": {"system": "BMDM", "experiment": "Antiinflammatory activity against LPS-stimulated mouse BMDM cells assessed as reduction in TNF production preincubated with compound for 8 hrs followed by LPS-induction and measured after 48 hrs by ELISA assay", "format": "functional, cell-based", "details": "dose 1-100 nM, time 56.0 hrs"}, "BMDM [16]": {"system": "BMDM", "experiment": "Antiinflammatory activity against LPS-stimulated mouse BMDM cells assessed as reduction in TNF production at 1 to 100 nM preincubated with compound for 8 hrs followed by LPS-induction and measured after 48 hrs by ELISA assay", "format": "functional, cell-based", "details": "dose 1-100 nM, time 56.0 hrs"}, "BMDM [17]": {"system": "BMDM", "experiment": "Antiinflammatory activity against LPS-stimulated mouse BMDM cells assessed as reduction in IL-6 production at 1 to 100 nM preincubated with compound for 8 hrs followed by LPS-induction and measured after 48 hrs by ELISA assay", "format": "functional, cell-based", "details": "dose 1-100 nM, time 56.0 hrs"}}, "note": "Activity calls are given as the source filed them. The rule behind the calls is not given here.", "data": [{"smiles": "CC1=C(CCc2ccoc2)[C@@]2(C=O)CCCC(C)(C)[C@@H]2CC1", "values": [{"measurement": "Activity", "setting": "BMDM [1]", "result": "Active"}, {"measurement": "Activity", "setting": "RAW264.7 [2]", "result": "Toxic"}, {"measurement": "Activity", "setting": "[3]", "result": "Non-toxic"}, {"measurement": "Activity", "setting": "BMDM [4]", "result": "inactive"}, {"measurement": "Activity", "setting": "RAW264.7 [5]", "result": "inactive"}, {"measurement": "Activity", "setting": "[6]", "result": "Toxic"}, {"measurement": "Activity", "setting": "BMDM [7]", "result": "Active"}, {"measurement": "Activity", "setting": "RAW264.7 [8]", "result": "Toxic"}, {"measurement": "Activity", "setting": "BMDM [9]", "result": "inactive"}]}, {"smiles": "CC(=O)O[C@@H]1O[C@@]2(C)CC[C@H]3C(C)(C)CCC[C@@]13[C@H]2CCc1ccoc1", "values": [{"measurement": "Activity", "setting": "RAW264.7 [2]", "result": "Toxic"}, {"measurement": "Activity", "setting": "RAW264.7 [5]", "result": "Active"}, {"measurement": "Activity", "setting": "RAW264.7 [8]", "result": "Toxic"}]}, {"smiles": "CC1(C)CCC[C@@]23[C@H](O)O[C@@](C)(CC[C@@H]12)[C@@H]3CCc1ccoc1", "values": [{"measurement": "Activity", "setting": "[3]", "result": "Non-toxic"}, {"measurement": "Activity", "setting": "RAW264.7 [10]", "result": "Non-toxic"}, {"measurement": "Activity", "setting": "RAW264.7 [5]", "result": "inactive"}, {"measurement": "Activity", "setting": "[6]", "result": "Toxic"}, {"measurement": "Activity", "setting": "BMDM [7]", "result": "Active"}]}, {"smiles": "CO[C@@H]1O[C@@]2(C)CC[C@H]3C(C)(C)CCC[C@@]13[C@H]2CCC1=CCOC1=O", "values": [{"measurement": "Activity", "setting": "[3]", "result": "Non-toxic"}, {"measurement": "Activity", "setting": "BMDM [11]", "result": "inactive"}, {"measurement": "Activity", "setting": "BMDM [4]", "result": "Active"}, {"measurement": "Activity", "setting": "BMDM [12]", "result": "Active"}, {"measurement": "Activity", "setting": "RAW264.7 [5]", "result": "inactive"}, {"measurement": "Activity", "setting": "[6]", "result": "Toxic"}, {"measurement": "Activity", "setting": "BMDM [7]", "result": "Active"}, {"measurement": "Activity", "setting": "[13]", "result": "Toxic"}, {"measurement": "Activity", "setting": "RAW264.7 [8]", "result": "Toxic"}, {"measurement": "Activity", "setting": "BMDM [9]", "result": "Active"}]}, {"smiles": "CC1=CC[C@H]2C(C)(C)CCC[C@]2(C=O)[C@H]1CCc1ccoc1", "values": [{"measurement": "Activity", "setting": "RAW264.7 [2]", "result": "Toxic"}, {"measurement": "Activity", "setting": "[3]", "result": "Non-toxic"}, {"measurement": "Activity", "setting": "BMDM [4]", "result": "inactive"}, {"measurement": "Activity", "setting": "RAW264.7 [5]", "result": "inactive"}, {"measurement": "Activity", "setting": "[6]", "result": "Toxic"}, {"measurement": "Activity", "setting": "BMDM [7]", "result": "Active"}, {"measurement": "Activity", "setting": "BMDM [14]", "result": "inactive"}, {"measurement": "Activity", "setting": "RAW264.7 [8]", "result": "Toxic"}, {"measurement": "Activity", "setting": "BMDM [9]", "result": "inactive"}]}, {"smiles": "CC1=C(CCC2=CCOC2=O)[C@@]2(C=O)CCCC(C)(C)[C@@H]2CC1", "values": [{"measurement": "Activity", "setting": "BMDM [1]", "result": "Active"}, {"measurement": "Activity", "setting": "[3]", "result": "Non-toxic"}, {"measurement": "Activity", "setting": "BMDM [11]", "result": "inactive"}, {"measurement": "Activity", "setting": "BMDM [4]", "result": "Active"}, {"measurement": "Activity", "setting": "BMDM [12]", "result": "Active"}, {"measurement": "Activity", "setting": "RAW264.7 [5]", "result": "inactive"}, {"measurement": "Activity", "setting": "[6]", "result": "Toxic"}, {"measurement": "Activity", "setting": "[13]", "result": "Toxic"}, {"measurement": "Activity", "setting": "RAW264.7 [8]", "result": "Toxic"}, {"measurement": "Activity", "setting": "BMDM [9]", "result": "Active"}]}, {"smiles": "CC1=C(CCc2cc(Br)oc2Br)[C@@]2(C=O)CCCC(C)(C)[C@@H]2CC1", "values": [{"measurement": "Activity", "setting": "BMDM [15]", "result": "Dose-dependent-effect"}, {"measurement": "Activity", "setting": "RAW264.7 [2]", "result": "Toxic"}, {"measurement": "Activity", "setting": "[3]", "result": "Non-toxic"}, {"measurement": "Activity", "setting": "BMDM [11]", "result": "inactive"}, {"measurement": "Activity", "setting": "BMDM [4]", "result": "Active"}, {"measurement": "Activity", "setting": "BMDM [12]", "result": "Active"}, {"measurement": "Activity", "setting": "RAW264.7 [5]", "result": "inactive"}, {"measurement": "Activity", "setting": "[13]", "result": "Toxic"}, {"measurement": "Activity", "setting": "BMDM [14]", "result": "inactive"}, {"measurement": "Activity", "setting": "RAW264.7 [8]", "result": "Toxic"}, {"measurement": "Activity", "setting": "BMDM [9]", "result": "Active"}]}, {"smiles": "CC1(C)CCC[C@@]23[C@H](O)O[C@@](C)(CC[C@@H]12)[C@@H]3CCC1=CCN(CC(=O)O)C1=O", "values": [{"measurement": "Activity", "setting": "BMDM [16]", "result": "Active"}, {"measurement": "Activity", "setting": "BMDM [17]", "result": "Active"}, {"measurement": "Activity", "setting": "[3]", "result": "Non-toxic"}, {"measurement": "Activity", "setting": "RAW264.7 [5]", "result": "Active"}, {"measurement": "Activity", "setting": "RAW264.7 [8]", "result": "Toxic"}]}]}
